{
  "source": "ChEMBL document CHEMBL5050859",
  "about": "“Gpx4 inhibitors, pharmaceutical compositions thereof, and their use for treating gpx4-mediated diseases” (2021)",
  "data": [
    {"tested_on": "Huh-7", "assay": "Antiproliferative activity against human Huh-7 cells after 24 hrs by Cell Titer Glo assay", "assay_type": "functional, cell-based", "conditions": "Huh-7, 24 h", "units": {"EC50": "µM"}, "values": [
      {"smiles": "COc1ccc(N(C(=O)CCl)C2(C(=O)NCc3ccccc3)CCC(F)(F)CC2)cc1Cl", "EC50": "≤ 0.1"},
      {"smiles": "C#CC(=O)N(c1ccc2ncsc2c1)C(C(=O)NCc1ccccc1)c1ccccc1", "note": "(stereo not drawn)", "EC50": 0.1},
      {"smiles": "C#CC(=O)N(c1cccc(C(N)=O)c1)C(C(=O)NCc1ccccc1)c1cccc(N)c1", "note": "(stereo not drawn)", "EC50": "> 10"},
      {"smiles": "C#CC(=O)N(c1cccc(Cl)c1)C1(C(=O)NCC(=O)N2CCCC(C(=O)OC)C2)CCOCC1", "note": "(stereo not drawn)", "EC50": 0.1},
      {"smiles": "C#CC(=O)N(c1ccc(NS(C)(=O)=O)cc1)C(C(=O)NC(C)(C)C)c1cccc(N)c1", "note": "(stereo not drawn)", "EC50": "> 10"},
      {"smiles": "COc1ccc(N(C(=O)CCl)C(C)C(=O)NCCc2ccccc2)cc1Cl", "note": "(stereo not drawn)", "EC50": 0.5},
      {"smiles": "C=CC(=O)N(C1CCC1)C1(C(=O)NCc2ccccc2)CCOCC1", "EC50": "> 10"},
      {"smiles": "C#CC(=O)N(c1cccc(C#N)c1)C(C(=O)NCc1ccccc1)c1ccc(N)cc1", "note": "(stereo not drawn)", "EC50": 0.1},
      {"smiles": "C#CC(=O)N(c1cc(Cl)ccc1F)C(C(=O)NCc1ccccc1)c1ccc(N)cc1", "note": "(stereo not drawn)", "EC50": "≤ 0.1"},
      {"smiles": "C#CC(=O)N(c1cc(Cl)ccc1F)C(C(=O)NCc1ccccc1)c1cccc(N)c1", "note": "(stereo not drawn)", "EC50": "≤ 0.1"},
      {"smiles": "C#CC(=O)N(c1ccc(OC)cc1OC)C1(C(=O)NCc2ccccc2)CCOCC1", "EC50": "≤ 0.1"},
      {"smiles": "CC#CC(=O)N(c1cccc(Cl)c1)C(C(=O)NCc1ccccc1)c1ccccc1", "note": "(stereo not drawn)", "EC50": "> 10"},
      {"smiles": "Cn1ncc2cc(N(C(=O)CCCl)C3(C(=O)NCc4ccccc4)CCOCC3)ccc21", "EC50": "> 10"},
      {"smiles": "CC(=O)N(c1ccc2c(cnn2C)c1)C1(C(=O)NCc2ccccc2)CCCOC1", "note": "(stereo not drawn)", "EC50": "> 10"},
      {"smiles": "C#CC(=O)N(c1ccc(N)cc1)C(C(=O)NC(C)(C)C)c1ccc(N)cc1", "note": "(stereo not drawn)", "EC50": 2},
      {"smiles": "C#CC(=O)N(c1cc(Cl)ccc1Cl)C(C(=O)NCc1ccccc1)c1ccccc1", "note": "(stereo not drawn)", "EC50": "≤ 0.1"},
      {"smiles": "C#CC(=O)N(c1cccc(Cl)c1)C1(C(=O)NCc2ccccc2)CCC(=O)CC1", "EC50": "≤ 0.1"},
      {"smiles": "COc1ccc(N(C(=O)CCl)C(C(=O)NC(C)(C)C)c2cccs2)cc1Cl", "note": "(stereo not drawn)", "EC50": 0.5},
      {"smiles": "C#CC(=O)N(c1ccc(C(=O)OC)cc1)C(C(=O)NCc1ccccc1)c1cccc(N)c1", "note": "(stereo not drawn)", "EC50": "≤ 0.1"},
      {"smiles": "CC(C)(C)NC(=O)C(c1ccc([N+](=O)[O-])cc1)N(C(=O)CCl)c1ccc(Cl)cc1", "note": "(stereo not drawn)", "EC50": 2},
      {"smiles": "C#CC(=O)N(c1ccc(O)cc1)C(C(=O)NC(C)(C)C)c1cccc(N)c1", "note": "(stereo not drawn)", "EC50": 2},
      {"smiles": "C#CC(=O)N(c1ccc(NS(C)(=O)=O)cc1)C(C(=O)NC(C)(C)C)c1ccc(N)cc1", "note": "(stereo not drawn)", "EC50": "> 10"},
      {"smiles": "COc1ccc(N(C(=O)CCl)C2(C(=O)NCCc3ccccc3)CCC(F)(F)CC2)cc1Cl", "EC50": 0.1},
      {"smiles": "C#CC(=O)N(c1cccc(Cl)c1)C1(C(=O)NCc2ccccc2)CCCOC1", "note": "(stereo not drawn)", "EC50": "≤ 0.1"},
      {"smiles": "C#CC(=O)N(c1cccc(Cl)c1)C(C(=O)NCc1ccccc1)c1cccc(OCC(=O)OC)c1", "note": "(stereo not drawn)", "EC50": 0.1},
      {"smiles": "C#CC(=O)N(c1cccc(Cl)c1)C1(C(=O)NCc2cccc(Cl)c2)CCOCC1", "EC50": "≤ 0.1"},
      {"smiles": "C#CC(=O)N(c1cccc(Cl)c1)C1(C(=O)NCC(=O)OCC)CCOCC1", "EC50": 0.5},
      {"smiles": "C#CC(=O)N(c1cccc(OC)c1)C(C(=O)NCc1ccccc1)c1ccc(N)cc1", "note": "(stereo not drawn)", "EC50": "≤ 0.1"},
      {"smiles": "C#CC(=O)N(Cc1cccc(O)c1)C1(C(=O)NCc2ccccc2)CCCC(C(=O)OC)C1", "note": "(stereo not drawn)", "EC50": 0.1},
      {"smiles": "O=C(NCCc1ccccc1)C(c1ccc([N+](=O)[O-])cc1)N(C(=O)CCl)c1cccc(O)c1", "note": "(stereo not drawn)", "EC50": 2},
      {"smiles": "C#CC(=O)N(c1cccc(C#N)c1)C(C(=O)NCc1ccccc1)c1ccccc1", "note": "(stereo not drawn)", "EC50": "≤ 0.1"},
      {"smiles": "C#CC(=O)N(c1cccc(Cl)c1)C1(C(=O)NCC(=O)NCCO)CCOCC1", "EC50": 2},
      {"smiles": "C#CC(=O)N(c1ccc(OC)cc1)C(C(=O)NC(C)(C)C)c1cccc(N)c1", "note": "(stereo not drawn)", "EC50": 0.5},
      {"smiles": "C#CC(=O)N(c1cccc(Cl)c1)C(C(=O)NC(C)(C)C)c1cccc(N)c1", "note": "(stereo not drawn)", "EC50": 0.1},
      {"smiles": "O=C(NCCc1ccccc1)C(c1ccc([N+](=O)[O-])cc1)N(Cc1ccccc1)C(=O)CCl", "note": "(stereo not drawn)", "EC50": 2},
      {"smiles": "C#CC(=O)N(c1ccc2c(cnn2C)c1)C1(C(=O)NCc2ccccc2)CCOCC1", "EC50": "≤ 0.1"},
      {"smiles": "C#CC(=O)N(c1cccc(Cl)c1)C(C(=O)NCc1ccccc1)c1cccc(N)c1", "note": "(stereo not drawn)", "EC50": "≤ 0.1"},
      {"smiles": "C#CC(=O)N(c1cccc2c1OCO2)C1(C(=O)NCc2ccccc2)CCOCC1", "EC50": "≤ 0.1"},
      {"smiles": "C#CC(=O)N(c1ccc(OC)c(Cl)c1)C(C(=O)NC(C)(C)C)c1ccc(N)cc1", "note": "(stereo not drawn)", "EC50": "≤ 0.1"},
      {"smiles": "C#CC(=O)N(c1ccc(Cl)c(Cl)c1)C(C(=O)NCc1ccccc1)c1ccc(N)cc1", "note": "(stereo not drawn)", "EC50": "≤ 0.1"},
      {"smiles": "C#CC(=O)N(c1cccc(Cl)c1)C1(C(=O)NCc2ccccc2)CCCC(=O)C1", "note": "(stereo not drawn)", "EC50": "≤ 0.1"},
      {"smiles": "C#CC(=O)N(c1cccc(Cl)c1)C(C(=O)NCC1CCOCC1)c1ccccc1", "note": "(stereo not drawn)", "EC50": "≤ 0.1"},
      {"smiles": "C#CC(=O)N(c1cccc(Cl)c1)C(C(=O)NCc1ccccc1)c1cccs1", "note": "(stereo not drawn)", "EC50": "≤ 0.1"},
      {"smiles": "C#CC(=O)N(c1ccc2c(cnn2C)c1)C1(C(=O)NCc2ccccc2)CCCC(=O)C1", "note": "(stereo not drawn)", "EC50": 0.1},
      {"smiles": "C#CC(=O)N(c1cccc(Cl)c1)[C@]1(C(=O)NCc2ccccc2)CC[C@@H](O)CC1", "EC50": 0.1},
      {"smiles": "C#CC(=O)N(c1cccc(F)c1)C(C(=O)NCc1ccccc1)c1cccc(N)c1", "note": "(stereo not drawn)", "EC50": 0.1},
      {"smiles": "C#CC(=O)N(CCc1ccccc1)C1(C(=O)NCc2ccccc2)CCCC(C(=O)OC)C1", "note": "(stereo not drawn)", "EC50": 0.1},
      {"smiles": "C#CC(=O)N(c1ccc(CO)cc1)C(C(=O)NCc1ccccc1)c1ccc(N)cc1", "note": "(stereo not drawn)", "EC50": 0.5}
    ]}
  ]
}
